Test: xn = mol fraction of the nth substance listed
Conditions: 101 kPa

Which viscosity (293.15 K, x2 = 0) does the source give for O + CCOS(=O)(=O)[O-].CC[n+]1ccn(C)c1 here?
Its viscosity is 0.97 mPa·s.

What about the viscosity (298.15 K, x2 = 0) of the same molecule?
The viscosity was 0.87 mPa·s.

What about the viscosity (303.15 K, x2 = 0) of the same molecule?
The viscosity was 0.78 mPa·s.

What about the viscosity (313.15 K, x2 = 0) of the same molecule?
The viscosity was 0.64 mPa·s.

Which results are given for CCOS(=O)(=O)[O-].CC[n+]1ccn(C)c1 + O?
viscosity (293.15 K, x1 = 0.001): 0.99 mPa·s; viscosity (293.15 K, x1 = 0.003): 1.04 mPa·s; viscosity (293.15 K, x1 = 0.004): 1.07 mPa·s; viscosity (293.15 K, x1 = 0.006): 1.14 mPa·s; viscosity (293.15 K, x1 = 0.008): 1.2 mPa·s; viscosity (293.15 K, x1 = 0.013): 1.34 mPa·s; viscosity (293.15 K, x1 = 0.019): 1.54 mPa·s; viscosity (293.15 K, x1 = 0.032): 1.93 mPa·s; viscosity (293.15 K, x1 = 0.047): 2.48 mPa·s; viscosity (293.15 K, x1 = 0.071): 3.42 mPa·s; viscosity (293.15 K, x1 = 0.103): 4.8 mPa·s; viscosity (293.15 K, x1 = 0.229): 11 mPa·s; viscosity (293.15 K, x1 = 0.303): 15.2 mPa·s; viscosity (293.15 K, x1 = 0.473): 27.4 mPa·s; viscosity (293.15 K, x1 = 0.588): 39.5 mPa·s; viscosity (293.15 K, x1 = 0.642): 46.7 mPa·s; viscosity (293.15 K, x1 = 1): 122 mPa·s; electrical conductivity (298.15 K, x1 = 0.001): 0.29 S/m; electrical conductivity (298.15 K, x1 = 0.004): 1.1 S/m; viscosity (298.15 K, x1 = 0.004): 0.97 mPa·s; electrical conductivity (298.15 K, x1 = 0.006): 1.5 S/m; viscosity (298.15 K, x1 = 0.006): 1.02 mPa·s; electrical conductivity (298.15 K, x1 = 0.008): 1.9 S/m; viscosity (298.15 K, x1 = 0.008): 1.07 mPa·s; electrical conductivity (298.15 K, x1 = 0.013): 2.5 S/m; viscosity (298.15 K, x1 = 0.013): 1.19 mPa·s; electrical conductivity (298.15 K, x1 = 0.019): 2.9 S/m; viscosity (298.15 K, x1 = 0.019): 1.36 mPa·s; electrical conductivity (298.15 K, x1 = 0.032): 3.7 S/m; viscosity (298.15 K, x1 = 0.032): 1.7 mPa·s; electrical conductivity (298.15 K, x1 = 0.071): 4.1 S/m; viscosity (298.15 K, x1 = 0.071): 2.97 mPa·s; electrical conductivity (298.15 K, x1 = 0.103): 3.7 S/m; viscosity (298.15 K, x1 = 0.103): 4.14 mPa·s; electrical conductivity (298.15 K, x1 = 0.151): 3.2 S/m; viscosity (298.15 K, x1 = 0.151): 6.06 mPa·s; electrical conductivity (298.15 K, x1 = 0.229): 2.5 S/m; viscosity (298.15 K, x1 = 0.229): 9.33 mPa·s; electrical conductivity (298.15 K, x1 = 0.303): 2 S/m; viscosity (298.15 K, x1 = 0.303): 12.9 mPa·s; electrical conductivity (298.15 K, x1 = 0.473): 1.2 S/m; viscosity (298.15 K, x1 = 0.473): 22.9 mPa·s; electrical conductivity (298.15 K, x1 = 0.588): 0.92 S/m; viscosity (298.15 K, x1 = 0.588): 32.7 mPa·s; electrical conductivity (298.15 K, x1 = 0.642): 0.81 S/m; viscosity (298.15 K, x1 = 0.642): 38.3 mPa·s; electrical conductivity (298.15 K, x1 = 1): 0.4 S/m; viscosity (298.15 K, x1 = 1): 95.5 mPa·s; viscosity (303.15 K, x1 = 0.001): 0.81 mPa·s; viscosity (303.15 K, x1 = 0.003): 0.84 mPa·s; viscosity (303.15 K, x1 = 0.004): 0.87 mPa·s; viscosity (303.15 K, x1 = 0.006): 0.91 mPa·s; viscosity (303.15 K, x1 = 0.008): 0.96 mPa·s; viscosity (303.15 K, x1 = 0.013): 1.06 mPa·s; viscosity (303.15 K, x1 = 0.019): 1.21 mPa·s; viscosity (303.15 K, x1 = 0.032): 1.5 mPa·s; viscosity (303.15 K, x1 = 0.071): 2.6 mPa·s; viscosity (303.15 K, x1 = 0.103): 3.59 mPa·s; viscosity (303.15 K, x1 = 0.151): 5.22 mPa·s; viscosity (303.15 K, x1 = 0.229): 7.98 mPa·s; viscosity (303.15 K, x1 = 0.303): 10.9 mPa·s; viscosity (303.15 K, x1 = 0.473): 19.3 mPa·s; viscosity (303.15 K, x1 = 0.588): 27.2 mPa·s; viscosity (303.15 K, x1 = 0.642): 31.7 mPa·s; viscosity (303.15 K, x1 = 1): 75.4 mPa·s; electrical conductivity (313.15 K, x1 = 0.001): 0.39 S/m; viscosity (313.15 K, x1 = 0.001): 0.66 mPa·s; electrical conductivity (313.15 K, x1 = 0.004): 1.5 S/m; viscosity (313.15 K, x1 = 0.004): 0.71 mPa·s; electrical conductivity (313.15 K, x1 = 0.006): 2 S/m; viscosity (313.15 K, x1 = 0.006): 0.74 mPa·s; electrical conductivity (313.15 K, x1 = 0.032): 5.1 S/m; viscosity (313.15 K, x1 = 0.032): 1.2 mPa·s; electrical conductivity (313.15 K, x1 = 0.047): 5.7 S/m; viscosity (313.15 K, x1 = 0.047): 1.51 mPa·s; electrical conductivity (313.15 K, x1 = 0.071): 5.8 S/m; viscosity (313.15 K, x1 = 0.071): 2.03 mPa·s; electrical conductivity (313.15 K, x1 = 0.103): 5.4 S/m; viscosity (313.15 K, x1 = 0.103): 2.77 mPa·s; electrical conductivity (313.15 K, x1 = 0.229): 3.7 S/m; viscosity (313.15 K, x1 = 0.229): 6 mPa·s; electrical conductivity (313.15 K, x1 = 0.303): 3 S/m; viscosity (313.15 K, x1 = 0.303): 8.15 mPa·s; electrical conductivity (313.15 K, x1 = 0.473): 1.9 S/m; viscosity (313.15 K, x1 = 0.473): 14.1 mPa·s; electrical conductivity (313.15 K, x1 = 1): 0.73 S/m; viscosity (313.15 K, x1 = 1): 49.4 mPa·s

Which results are given for CC[n+]1ccn(C)c1.O=S(=O)([O-])C(F)(F)F + O?
viscosity (293.15 K, x1 = 0.001): 1.01 mPa·s; viscosity (293.15 K, x1 = 0.002): 1.03 mPa·s; viscosity (293.15 K, x1 = 0.005): 1.11 mPa·s; viscosity (293.15 K, x1 = 0.008): 1.16 mPa·s; viscosity (293.15 K, x1 = 0.012): 1.26 mPa·s; viscosity (293.15 K, x1 = 0.017): 1.38 mPa·s; viscosity (293.15 K, x1 = 0.064): 2.48 mPa·s; viscosity (293.15 K, x1 = 0.094): 3.21 mPa·s; viscosity (293.15 K, x1 = 0.137): 4.24 mPa·s; viscosity (293.15 K, x1 = 0.216): 6.17 mPa·s; viscosity (293.15 K, x1 = 0.391): 10.9 mPa·s; viscosity (293.15 K, x1 = 0.512): 15.5 mPa·s; viscosity (293.15 K, x1 = 0.73): 27.3 mPa·s; viscosity (293.15 K, x1 = 1): 52.4 mPa·s; electrical conductivity (298.15 K, x1 = 0.001): 0.28 S/m; viscosity (298.15 K, x1 = 0.001): 0.9 mPa·s; electrical conductivity (298.15 K, x1 = 0.002): 0.66 S/m; viscosity (298.15 K, x1 = 0.002): 0.92 mPa·s; electrical conductivity (298.15 K, x1 = 0.004): 1 S/m; viscosity (298.15 K, x1 = 0.004): 0.96 mPa·s; electrical conductivity (298.15 K, x1 = 0.008): 1.7 S/m; viscosity (298.15 K, x1 = 0.008): 1.03 mPa·s; electrical conductivity (298.15 K, x1 = 0.029): 3.6 S/m; viscosity (298.15 K, x1 = 0.029): 1.47 mPa·s; electrical conductivity (298.15 K, x1 = 0.094): 4.8 S/m; viscosity (298.15 K, x1 = 0.094): 2.81 mPa·s; electrical conductivity (298.15 K, x1 = 0.216): 3.9 S/m; viscosity (298.15 K, x1 = 0.216): 5.37 mPa·s; electrical conductivity (298.15 K, x1 = 0.391): 2.8 S/m; viscosity (298.15 K, x1 = 0.391): 9.43 mPa·s; electrical conductivity (298.15 K, x1 = 0.463): 2.4 S/m; viscosity (298.15 K, x1 = 0.463): 11.8 mPa·s; electrical conductivity (298.15 K, x1 = 0.512): 2.1 S/m; viscosity (298.15 K, x1 = 0.512): 13.4 mPa·s; electrical conductivity (298.15 K, x1 = 0.73): 1.5 S/m; viscosity (298.15 K, x1 = 0.73): 23.3 mPa·s; electrical conductivity (298.15 K, x1 = 1): 0.91 S/m; viscosity (298.15 K, x1 = 1): 43.8 mPa·s; viscosity (303.15 K, x1 = 0.001): 0.81 mPa·s; viscosity (303.15 K, x1 = 0.002): 0.83 mPa·s; viscosity (303.15 K, x1 = 0.004): 0.86 mPa·s; viscosity (303.15 K, x1 = 0.005): 0.88 mPa·s; viscosity (303.15 K, x1 = 0.012): 0.99 mPa·s; viscosity (303.15 K, x1 = 0.029): 1.31 mPa·s; viscosity (303.15 K, x1 = 0.041): 1.57 mPa·s; viscosity (303.15 K, x1 = 0.064): 1.92 mPa·s; viscosity (303.15 K, x1 = 0.094): 2.47 mPa·s; viscosity (303.15 K, x1 = 0.216): 4.71 mPa·s; viscosity (303.15 K, x1 = 0.463): 10.3 mPa·s; viscosity (303.15 K, x1 = 0.512): 11.7 mPa·s; viscosity (303.15 K, x1 = 0.73): 20 mPa·s; viscosity (303.15 K, x1 = 1): 36.7 mPa·s; electrical conductivity (313.15 K, x1 = 0.001): 0.37 S/m; viscosity (313.15 K, x1 = 0.001): 0.67 mPa·s; electrical conductivity (313.15 K, x1 = 0.002): 0.93 S/m; viscosity (313.15 K, x1 = 0.002): 0.69 mPa·s; electrical conductivity (313.15 K, x1 = 0.005): 1.8 S/m; viscosity (313.15 K, x1 = 0.005): 0.72 mPa·s; electrical conductivity (313.15 K, x1 = 0.008): 2.3 S/m; viscosity (313.15 K, x1 = 0.008): 0.75 mPa·s; electrical conductivity (313.15 K, x1 = 0.012): 3.1 S/m; viscosity (313.15 K, x1 = 0.012): 0.82 mPa·s; electrical conductivity (313.15 K, x1 = 0.041): 5.6 S/m; viscosity (313.15 K, x1 = 0.041): 1.26 mPa·s; electrical conductivity (313.15 K, x1 = 0.064): 6.4 S/m; viscosity (313.15 K, x1 = 0.064): 1.52 mPa·s; electrical conductivity (313.15 K, x1 = 0.094): 6.6 S/m; viscosity (313.15 K, x1 = 0.094): 1.96 mPa·s; electrical conductivity (313.15 K, x1 = 0.216): 5.7 S/m; viscosity (313.15 K, x1 = 0.216): 3.69 mPa·s; electrical conductivity (313.15 K, x1 = 0.391): 4.1 S/m; viscosity (313.15 K, x1 = 0.391): 6.41 mPa·s; electrical conductivity (313.15 K, x1 = 0.463): 3.4 S/m; viscosity (313.15 K, x1 = 0.463): 7.95 mPa·s; electrical conductivity (313.15 K, x1 = 0.512): 3.1 S/m; viscosity (313.15 K, x1 = 0.512): 9.02 mPa·s; electrical conductivity (313.15 K, x1 = 0.73): 2.2 S/m; viscosity (313.15 K, x1 = 0.73): 15 mPa·s; electrical conductivity (313.15 K, x1 = 1): 1.4 S/m; viscosity (313.15 K, x1 = 1): 26.6 mPa·s
